Data reported in paper PMC8617031, “Development of a BCL-xL and BCL-2 dual degrader with improved anti-leukemic activity,” (Nature Communications, 2021).
“And” between values parts separate entries of the source, which are not always exact repeats. Identical values can stand only once.

How the values were obtained:
BCL-xL = target: T1, BCL-xL (Homo sapiens, UniProt Q07817); assay: BCL-xL degradation by immunoblot in 293T cells; assay type: cell-based; settings: for DC50: 293T cells, four concentrations, 16 h, Fig. 2b, read-out: BCL-xL DC50; for Dmax: HEK-293T
T1 construct: endogenous in cells
T1 sequence (Q07817 whole entry): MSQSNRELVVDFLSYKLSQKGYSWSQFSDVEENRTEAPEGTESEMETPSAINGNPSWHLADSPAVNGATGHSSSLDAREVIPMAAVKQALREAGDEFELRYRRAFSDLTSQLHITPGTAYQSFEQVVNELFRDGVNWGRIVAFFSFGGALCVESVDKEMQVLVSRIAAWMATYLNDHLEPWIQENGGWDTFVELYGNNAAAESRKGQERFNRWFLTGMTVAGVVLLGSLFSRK
Procedure, shortened: (§1)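 DC50 and Dmax come from densitometry of western blots of treated 293T cells, normalized to β-actin, mean of 3 independent experiments. Lysates in RIPA, 20–40 μg loaded per lane, HRP chemiluminescence read-out.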

BCL-2 = target: T2, BCL-2 (Homo sapiens, UniProt P10415); assay: BCL-2 degradation by immunoblot in 293T cells; assay type: cell-based; settings: for BCL-2 degradation (in words) / DC50: 293T cells, 16 h; for Dmax: HEK-293T; for DC50: four concentrations, Fig. 2b, read-out: BCL-2 DC50
T2 construct: endogenous in cells
T2 sequence (P10415 whole entry): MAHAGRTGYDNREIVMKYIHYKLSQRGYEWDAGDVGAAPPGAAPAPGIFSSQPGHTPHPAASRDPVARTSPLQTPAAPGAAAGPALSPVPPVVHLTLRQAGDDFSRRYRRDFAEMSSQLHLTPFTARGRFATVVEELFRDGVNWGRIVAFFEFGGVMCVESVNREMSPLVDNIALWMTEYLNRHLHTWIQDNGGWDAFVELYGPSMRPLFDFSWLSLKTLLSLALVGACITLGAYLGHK
Procedure, shortened: as §1

[1] = target: T3, BCL-xL/PROTAC/VHL-ELOC-ELOB (VCB) ternary complex (Homo sapiens, UniProt P40337+Q07817); assay: AlphaLISA ternary complex formation, cell-free, BCL-xL; assay type: binding; settings: for in vitro ternary complex formation with BCL-xL (in words): AlphaLISA, cell-free, Fig. 2c, 3e
T3 construct: pGEX-6P-1-VHL(54-213) (pDL2200) was constructed through Gibson assembly method; made in house; host or cells: bacterial culture (LB broth, IPTG induction)
T3 sequence (Q07817 1-212 limits assumed): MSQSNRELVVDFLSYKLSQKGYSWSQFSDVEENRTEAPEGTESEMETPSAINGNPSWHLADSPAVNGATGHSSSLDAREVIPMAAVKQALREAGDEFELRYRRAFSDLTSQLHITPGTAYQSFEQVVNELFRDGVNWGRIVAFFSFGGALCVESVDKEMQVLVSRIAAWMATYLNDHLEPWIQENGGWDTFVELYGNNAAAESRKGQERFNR
T3 sequence (P40337 54-213 limits assumed): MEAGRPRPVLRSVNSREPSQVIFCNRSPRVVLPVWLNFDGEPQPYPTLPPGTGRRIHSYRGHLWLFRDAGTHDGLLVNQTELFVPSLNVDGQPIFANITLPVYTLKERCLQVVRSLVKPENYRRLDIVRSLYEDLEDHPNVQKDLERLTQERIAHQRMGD
T3 sequence (Q15369 17-112 partner limits assumed): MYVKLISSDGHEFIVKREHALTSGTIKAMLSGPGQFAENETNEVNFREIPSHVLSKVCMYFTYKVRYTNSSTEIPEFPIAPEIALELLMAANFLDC
T3 sequence (Q15370 whole entry partner): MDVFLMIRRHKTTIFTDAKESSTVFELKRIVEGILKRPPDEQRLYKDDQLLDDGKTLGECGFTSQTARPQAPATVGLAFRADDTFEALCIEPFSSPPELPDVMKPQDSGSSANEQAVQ
Procedure, shortened: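 Cell-free AlphaLISA: 5 nM His-tagged BCL-xL or BCL-2 plus 5 nM GST-VCB incubated with fourfold serially diluted compound 30 min at room temperature. Glutathione donor and His acceptor beads (20 µg/ml each) then added for 15 and 45 min; AlphaLISA signal plotted against compound concentration.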

[2] = compound 0.191 nM, Fig. 2c raw Alpha reads
[3] = compound 0.763 nM, Fig. 2c raw Alpha reads
[4] = compound 3.052 nM, Fig. 2c raw Alpha reads
[5] = compound 12.207 nM, Fig. 2c raw Alpha reads
[6] = compound 48.828 nM, Fig. 2c raw Alpha reads
[7] = compound 195.31 nM, Fig. 2c raw Alpha reads
[8] = compound 781.25 nM, Fig. 2c raw Alpha reads
[9] = compound 3125 nM, Fig. 2c raw Alpha reads
[10] = compound 12500 nM, Fig. 2c raw Alpha reads
[11] = compound 50000 nM, Fig. 2c raw Alpha reads
[12] = compound 200000 nM, Fig. 2c raw Alpha reads, 2 technical replicates

Structure (SMILES) | DC50 (BCL-xL) [nM] | Dmax (BCL-xL) [%] | BCL-2 degradation (in words) (BCL-2) | Dmax (BCL-2) [%] | AlphaLISA signal, BCL-xL/PROTAC/VCB [1, 2] | AlphaLISA signal, BCL-xL/PROTAC/VCB [1, 3] | AlphaLISA signal, BCL-xL/PROTAC/VCB [1, 4] | AlphaLISA signal, BCL-xL/PROTAC/VCB [1, 5] | AlphaLISA signal, BCL-xL/PROTAC/VCB [1, 6] | AlphaLISA signal, BCL-xL/PROTAC/VCB [1, 7] | AlphaLISA signal, BCL-xL/PROTAC/VCB [1, 8] | AlphaLISA signal, BCL-xL/PROTAC/VCB [1, 9] | AlphaLISA signal, BCL-xL/PROTAC/VCB [1, 10] | AlphaLISA signal, BCL-xL/PROTAC/VCB [1, 11] | AlphaLISA signal, BCL-xL/PROTAC/VCB [1, 12] | in vitro ternary complex formation with BCL-xL (in words) [1] | DC50 (BCL-2) [nM] | other results
Cc1ncsc1-c1ccc([C@H](C)NC(=O)[C@@H]2C[C@@H](O)CN2C(=O)[C@@H](NC(=O)CCCCCC(=O)N2CCN(CC[C@H](CSc3ccccc3)Nc3ccc(S(=O)(=O)NC(=O)c4ccc(N5CCN(CC6=C(c7ccc(Cl)cc7)CCC(C)(C)C6)CC5)cc4)cc3S(=O)(=O)C(F)(F)F)CC2)C(C)(C)C)cc1 [DT2216] | 20.3 | 92 | did not induce BCL-2 degradation | 0 | 16719 and 10405 | 18311 and 16968 | 25910 and 22328 | 86818 and 83277 | 487236 and 509576 | 1016591 and 916263 | 880317 and 910855 | 660864 and 590073 | 241490 and 226854 | 34465 and 29535 | 19406 and 20996 | – | – | AlphaLISA signal, BCL-xL/PROTAC/VCB ([1]; compound 0.19 nM, Fig. 3e raw Alpha reads): 24660 and 20115; AlphaLISA signal, BCL-xL/PROTAC/VCB ([1]; compound 0.76 nM, Fig. 3e raw Alpha reads): 36507 and 38317; AlphaLISA signal, BCL-xL/PROTAC/VCB ([1]; compound 3.05 nM, Fig. 3e raw Alpha reads): 66449 and 60221; AlphaLISA signal, BCL-xL/PROTAC/VCB ([1]; compound 12.21 nM, Fig. 3e raw Alpha reads): 409606 and 406374; AlphaLISA signal, BCL-xL/PROTAC/VCB ([1]; compound 48.83 nM, Fig. 3e raw Alpha reads): 1004765 and 1011127; AlphaLISA signal, BCL-xL/PROTAC/VCB ([1]; compound 195.31 nM, Fig. 3e raw Alpha reads): 1443448 and 1418663; AlphaLISA signal, BCL-xL/PROTAC/VCB ([1]; compound 781.25 nM, Fig. 3e raw Alpha reads): 1065855 and 975587; AlphaLISA signal, BCL-xL/PROTAC/VCB ([1]; compound 3125 nM, Fig. 3e raw Alpha reads): 557160 and 572089; AlphaLISA signal, BCL-xL/PROTAC/VCB ([1]; compound 12500 nM, Fig. 3e raw Alpha reads): 200468 and 154034; AlphaLISA signal, BCL-xL/PROTAC/VCB ([1]; compound 50000 nM, Fig. 3e raw Alpha reads, 2 technical replicates): 37331 and 41699
Cc1ncsc1-c1ccc([C@H](C)NC(=O)[C@@H]2C[C@@H](O)CN2C(=O)[C@@H](NC(=O)CCCCC(=O)N2CCN(CC3(C)CCC(c4ccc(Cl)cc4)=C(CN4CCN(c5ccc(C(=O)NS(=O)(=O)c6ccc(N[C@H](CCN7CCOCC7)CSc7ccccc7)c(S(=O)(=O)C(F)(F)F)c6)cc5)CC4)C3)CC2)C(C)(C)C)cc1 (stereo partly shown) [PPC6] | 39.9 | 91 | – | 47 | 15802 and 16724 | 18968 and 16877 | 31177 and 28685 | 217997 and 245739 | 796343 and 866530 | 952961 and 938632 | 936762 and 1084189 | 603765 and 595968 | 155340 and 139952 | 73929 and 84434 | 25477 and 29119 | stronger ternary complexes | – | –
Cc1ncsc1-c1ccc([C@H](C)NC(=O)[C@@H]2C[C@@H](O)CN2C(=O)[C@@H](NC(=O)CCCCCC(=O)N2CCN(CC3(C)CCC(c4ccc(Cl)cc4)=C(CN4CCN(c5ccc(C(=O)NS(=O)(=O)c6ccc(N[C@H](CCN7CCOCC7)CSc7ccccc7)c(S(=O)(=O)C(F)(F)F)c6)cc5)CC4)C3)CC2)C(C)(C)C)cc1 (stereo partly shown) [PPC7] | 12.8 | 85 | also degraded BCL-2 | 79 | 16342 and 14008 | 13825 and 16199 | 18964 and 20836 | 75292 and 75299 | 594562 and 681817 | 1206651 and 1333081 | 1103207 and 1035637 | 530944 and 584971 | 158302 and 141290 | 39339 and 47417 | 23853 and 20524 | stronger ternary complexes | 180 | –
Cc1ncsc1-c1ccc([C@H](C)NC(=O)[C@@H]2C[C@@H](O)CN2C(=O)[C@@H](NC(=O)CCCCCCC(=O)N2CCN(CC3(C)CCC(c4ccc(Cl)cc4)=C(CN4CCN(c5ccc(C(=O)NS(=O)(=O)c6ccc(N[C@H](CCN7CCOCC7)CSc7ccccc7)c(S(=O)(=O)C(F)(F)F)c6)cc5)CC4)C3)CC2)C(C)(C)C)cc1 (stereo partly shown) [PPC8] | 12.9 | 94 | also degraded BCL-2 | 94 | 19077 and 19160 | 16314 and 16977 | 21818 and 20322 | 112726 and 99392 | 824374 and 896013 | 1441307 and 1441293 | 1280941 and 1272724 | 836346 and 758740 | 257313 and 288328 | 78225 and 86140 | 21117 and 20625 | stronger ternary complexes | 54 | –
Cc1ncsc1-c1ccc([C@H](C)NC(=O)[C@@H]2C[C@@H](O)CN2C(=O)[C@@H](NC(=O)CCCCCCCC(=O)N2CCN(CC3(C)CCC(c4ccc(Cl)cc4)=C(CN4CCN(c5ccc(C(=O)NS(=O)(=O)c6ccc(N[C@H](CCN7CCOCC7)CSc7ccccc7)c(S(=O)(=O)C(F)(F)F)c6)cc5)CC4)C3)CC2)C(C)(C)C)cc1 (stereo partly shown) [PPC9] | 12.8 | 96 | also degraded BCL-2 | 79 | 17022 and 14292 | 18582 and 21901 | 16005 and 18766 | 39343 and 38049 | 159552 and 171121 | 340009 and 336400 | 265891 and 255043 | 73854 and 131135 | 17390 and 24043 | 11384 and 10586 | 11935 and 10943 | much weaker ternary complexes | 316 | –
